We go through eight compounds from PubChem BioAssay AID624129 (Sanford-Burnham Center for Chemical Genomics, 2012).

Assay in all cases: potency against CXCR6 with APJ panel – cell-based, beta-arrestin, DiscoveRx, uHTS hits, dose response (AID 624129)
For test [1], the target named is Apelin receptor (Homo sapiens) (UniProt P35414). The conditions noted are these: CXCR6 beta-arrestin (DiscoveRx) antagonist cell assay, APJ.
Test [2] concerns the target Beta-galactosidase (Escherichia coli) (UniProt Q8VNN2). To be noted: CXCR6 beta-arrestin (DiscoveRx) antagonist cell assay, b-galactosidase.
In test [3] the target is C-C chemokine receptor type 6 (Homo sapiens) (UniProt P51684). To be noted: CXCR6 beta-arrestin (DiscoveRx) antagonist cell assay.
Test [4] addresses C-X-C chemokine receptor type 6 (Homo sapiens) (UniProt O00574). The conditions noted are these: CXCR6 beta-arrestin (DiscoveRx) antagonist cell assay.
The mark [5] stands for this setting: dose range 1, mean IC50 across replicates.
Where [6] appears, read: CCR6, dose range 1, mean IC50 across replicates.
Where [7] appears, read: CXCR6, dose range 1, mean IC50 across replicates.
Setting [8] is: CXCR6, run 1, dose range 2, at 80 µM (top of the series).

The source made the active and inactive calls. The rule behind the calls is not given here.

Chain of C-X-C chemokine receptor type 6 (Homo sapiens) (O00574 whole entry, looked up): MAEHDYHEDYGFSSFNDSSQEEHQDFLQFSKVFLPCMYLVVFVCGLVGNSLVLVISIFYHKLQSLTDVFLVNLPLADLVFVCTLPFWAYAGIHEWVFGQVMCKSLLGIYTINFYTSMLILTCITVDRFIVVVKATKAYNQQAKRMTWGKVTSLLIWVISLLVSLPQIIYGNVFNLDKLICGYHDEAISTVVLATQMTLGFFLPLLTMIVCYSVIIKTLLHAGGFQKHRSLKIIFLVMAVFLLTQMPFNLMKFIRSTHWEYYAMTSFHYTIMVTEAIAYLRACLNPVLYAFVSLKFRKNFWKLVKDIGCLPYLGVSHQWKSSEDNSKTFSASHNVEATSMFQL
Chain of Beta-galactosidase (Escherichia coli) (Q8VNN2 whole entry, looked up): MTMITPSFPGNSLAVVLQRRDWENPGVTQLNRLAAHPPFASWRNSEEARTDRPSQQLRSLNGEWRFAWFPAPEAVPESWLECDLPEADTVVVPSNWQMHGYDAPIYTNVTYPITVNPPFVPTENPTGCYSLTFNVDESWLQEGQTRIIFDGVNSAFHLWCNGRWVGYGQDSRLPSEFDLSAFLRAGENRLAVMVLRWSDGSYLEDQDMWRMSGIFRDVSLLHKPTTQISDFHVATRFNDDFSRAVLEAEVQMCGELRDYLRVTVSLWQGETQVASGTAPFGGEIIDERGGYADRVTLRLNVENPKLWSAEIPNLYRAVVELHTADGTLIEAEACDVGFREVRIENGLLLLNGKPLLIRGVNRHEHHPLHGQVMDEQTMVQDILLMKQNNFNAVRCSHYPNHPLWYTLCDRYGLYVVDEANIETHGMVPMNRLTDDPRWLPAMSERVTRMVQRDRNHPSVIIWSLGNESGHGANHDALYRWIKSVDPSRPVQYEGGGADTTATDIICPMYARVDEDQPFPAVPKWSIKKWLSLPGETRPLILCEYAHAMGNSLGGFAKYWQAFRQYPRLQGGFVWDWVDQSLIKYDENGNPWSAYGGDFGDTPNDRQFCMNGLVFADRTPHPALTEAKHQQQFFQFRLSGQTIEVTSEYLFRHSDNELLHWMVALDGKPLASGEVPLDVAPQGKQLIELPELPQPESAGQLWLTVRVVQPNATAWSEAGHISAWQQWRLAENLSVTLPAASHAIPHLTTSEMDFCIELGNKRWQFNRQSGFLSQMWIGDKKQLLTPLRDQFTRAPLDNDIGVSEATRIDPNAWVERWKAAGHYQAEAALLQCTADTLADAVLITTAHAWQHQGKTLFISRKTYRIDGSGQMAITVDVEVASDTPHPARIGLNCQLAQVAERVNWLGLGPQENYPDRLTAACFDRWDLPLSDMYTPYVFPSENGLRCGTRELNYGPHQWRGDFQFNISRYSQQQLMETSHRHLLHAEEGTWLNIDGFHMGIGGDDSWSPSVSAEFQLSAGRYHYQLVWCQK

On to `O=C1N[C@H](Cc2ccccc2)COC(=O)[C@H](Cc2ccc(F)cc2)CC/C=C/C[C@H]1CC(=O)N(CCO)Cc1ccccc1`, for which the IC50 in test [1] (setting [5]) was 4.7 µM; in test [1] (run 2, dose range 1), greater than 80 µM; in test [1] (run 3, dose range 1), 4.7 µM; in test [2] (dose range 1), > 80 µM (inactive); in test [2] (setting [5]), greater than 80 µM; in test [3] (CCR6, dose range 1), 5.96 µM. Moreover, the 50% inhibitory concentration (IC50) is 7.08 µM in test [3] (setting [6]); 8.19 µM in test [3] (CCR6, run 2, dose range 1); 3.29 µM in test [4] (CXCR6, dose range 1); 5.31 µM in test [4] (setting [7]); 7.32 µM in test [4] (CXCR6, run 2, dose range 1). Further, the inhibition in test [4] (CXCR6, run 1, dose range 2, at 20 µM (top of the series)) was found to be 67.7%.

For the compound `O=C1C=CC(=O)N1Cc1ccccc1`, the IC50 is 12 µM in test [1] (dose range 1); 11 µM in test [1] (setting [5]); 11.4 µM in test [1] (run 2, dose range 1); 9.67 µM in test [1] (run 3, dose range 1); > 80 µM (inactive) in test [2] (dose range 1); greater than 80 µM in test [2] (setting [5]). Further, the IC50 in test [3] (CCR6, dose range 1) is 6.91 µM; in test [3] (setting [6]), 7.21 µM; in test [3] (CCR6, run 2, dose range 1), 7.51 µM; in test [4] (CXCR6, dose range 1), 10.8 µM; in test [4] (setting [7]) it was 8.3 µM; in test [4] (CXCR6, run 2, dose range 1), 5.84 µM. Moreover, the inhibition in test [4] (setting [8]) is 122%.

For `O=C1C=CC(=O)N1c1ccccc1N1C(=O)C=CC1=O`, the IC50 in test [1] (setting [5]) is greater than 80 µM; in test [1] (run 2, dose range 1), greater than 80 µM; in test [1] (run 3, dose range 1) it was greater than 80 µM; in test [2] (dose range 1), > 80 µM (inactive); in test [2] (setting [5]) it was greater than 80 µM; in test [3] (setting [6]) it was greater than 80 µM. For the same compound, the half-inhibitory concentration (IC50) in test [3] (CCR6, run 2, dose range 1) was greater than 80 µM; in test [4] (CXCR6, dose range 1) it was > 80 µM (inactive); in test [4] (setting [7]) it was greater than 80 µM; in test [4] (CXCR6, run 2, dose range 1), greater than 80 µM. Besides, the inhibition in test [4] (setting [8]) was found to be 42.9%.

Take `Oc1c(I)cc(Cl)c2cccnc12`: the IC50 in test [1] (dose range 1) is 3.72 µM; in test [1] (setting [5]), 18.7 µM; in test [1] (run 2, dose range 1), 12.7 µM; in test [1] (run 3, dose range 1), 39.6 µM; in test [2] (dose range 1) it was > 80 µM (inactive); in test [2] (setting [5]), greater than 80 µM. Further, the half-maximal inhibitory concentration (IC50) was 5.29 µM in test [3] (CCR6, dose range 1); 6.44 µM in test [3] (setting [6]); 7.59 µM in test [3] (CCR6, run 2, dose range 1); 6.47 µM in test [4] (CXCR6, dose range 1); 4.36 µM in test [4] (setting [7]); 2.24 µM in test [4] (CXCR6, run 2, dose range 1). Further, the inhibition in test [4] (setting [8]) is 49.5%.

`CCS(=O)(=O)c1ncc(Cl)c(C(=O)Nc2ccc(S(=O)(=O)N(C)c3ccccc3)cc2)n1`: the concentration for half-maximal inhibition (IC50) was 5.02 µM in test [1] (dose range 1); 5.55 µM in test [1] (setting [5]); 5.84 µM in test [1] (run 2, dose range 1); 5.8 µM in test [1] (run 3, dose range 1); > 80 µM (inactive) in test [2] (dose range 1); greater than 80 µM in test [2] (setting [5]). The IC50 in test [3] (CCR6, dose range 1) was 4.87 µM; in test [3] (setting [6]), 4.8 µM; in test [3] (CCR6, run 2, dose range 1), 4.74 µM; in test [4] (CXCR6, dose range 1), 6.29 µM; in test [4] (setting [7]) it was 6.61 µM; in test [4] (CXCR6, run 1, dose range 2), 6.87 µM. Further, the concentration for half-maximal inhibition (IC50) in test [4] (CXCR6, run 2, dose range 1) was found to be 6.54 µM; in test [4] (CXCR6, run 2, dose range 2), 6.76 µM.

For `NC(=S)N/N=C/c1ncc(C(F)(F)F)cc1Cl`, the IC50 is 6.82 µM in test [1] (dose range 1); 7.73 µM in test [1] (setting [5]); 8.7 µM in test [1] (run 2, dose range 1); 7.68 µM in test [1] (run 3, dose range 1); > 80 µM (inactive) in test [2] (dose range 1); greater than 80 µM in test [2] (setting [5]). In addition, the half-inhibitory concentration (IC50) in test [3] (CCR6, dose range 1) is 6 µM; in test [3] (setting [6]) it was 6.7 µM; in test [3] (CCR6, run 2, dose range 1) it was 7.41 µM; in test [4] (CXCR6, dose range 1), 7.01 µM; in test [4] (setting [7]) it was 5.44 µM; in test [4] (CXCR6, run 1, dose range 2), 3.67 µM. Besides, the IC50 in test [4] (CXCR6, run 2, dose range 1) was 6.86 µM; in test [4] (CXCR6, run 2, dose range 2), 4.23 µM.

In the case of `CC(=O)OCCNc1cc(Sc2nc3ccccc3[nH]2)c2nonc2c1[N+](=O)[O-]`, the concentration for half-maximal inhibition (IC50) in test [1] (dose range 1) was 9.71 µM; in test [1] (setting [5]), 8.18 µM; in test [1] (run 2, dose range 1), 7.17 µM; in test [1] (run 3, dose range 1), 7.67 µM; in test [2] (dose range 1), 29.8 µM; in test [2] (setting [5]), 29.8 µM. Also, the IC50 was 5.52 µM in test [3] (CCR6, dose range 1); 5.34 µM in test [3] (setting [6]); 5.16 µM in test [3] (CCR6, run 2, dose range 1); 6.36 µM in test [4] (CXCR6, dose range 1); 6.45 µM in test [4] (setting [7]); 7.34 µM in test [4] (CXCR6, run 1, dose range 2). The 50% inhibitory concentration (IC50) in test [4] (CXCR6, run 2, dose range 1) was 6.05 µM; in test [4] (CXCR6, run 2, dose range 2), 6.06 µM.

As to `CCCCCCN1C=C/C(=C\C=C(C#N)C#N)c2ccccc21`, the IC50 is 26.9 µM in test [1] (dose range 1); 35.4 µM in test [1] (setting [5]); 52.3 µM in test [1] (run 2, dose range 1); 27.1 µM in test [1] (run 3, dose range 1); > 80 µM (inactive) in test [2] (dose range 1); greater than 80 µM in test [2] (setting [5]). Moreover, the IC50 is 23.4 µM in test [3] (CCR6, dose range 1); 19.9 µM in test [3] (setting [6]); 16.3 µM in test [3] (CCR6, run 2, dose range 1); 42.5 µM in test [4] (setting [7]); 43.9 µM in test [4] (CXCR6, run 2, dose range 1). Also, the IC50 entry in test [4] (CXCR6, dose range 1) was “inactive”. For the same compound, in test [4] (setting [8]), the inhibition came out at 158%.
